Values after ≈ are worked out from the molar mass of the structure shown. Active and inactive are the calls of the source. The rule behind the calls is not given here.
Legend:
[1] = tested on: Mycobacterium avium; assay: Antibacterial activity against Mycobacterium avium assessed as inhibition of bacterial growth at <=4 ug/ml; format: functional; parameters: scale not given: the % may be the effect or the level left
[2] = tested on: Enterococcus faecalis; assay: Antibacterial activity against Enterococcus faecalis; format: functional
[3] = tested on: Enterococcus faecalis; assay: Antibacterial activity against Enterococcus faecalis in presence of 50 ug/ml thymidine; format: functional
[4] = tested on: Enterococcus faecalis; assay: Antibacterial activity against Enterococcus faecalis in presence of 250 ug/ml thymidine; format: functional
[5] = tested on: Enterococcus faecium; assay: Antibacterial activity against Enterococcus faecium; format: functional
[6] = tested on: Enterococcus faecium; assay: Antibacterial activity against Enterococcus faecium in presence of 50 ug/ml thymidine; format: functional
[7] = tested on: Enterococcus faecium; assay: Antibacterial activity against Enterococcus faecium in presence of 250 ug/ml thymidine; format: functional
[8] = tested on: Streptococcus pneumoniae; assay: Antibacterial activity against Streptococcus pneumoniae
[9] = tested on: Streptococcus pneumoniae; assay: Antibacterial activity against Streptococcus pneumoniae in presence of 50 ug/ml thymidine; format: functional
[10] = tested on: Streptococcus pneumoniae; assay: Antibacterial activity against Streptococcus pneumoniae in presence of 250 ug/ml thymidine; format: functional
[11] = tested on: Haemophilus influenzae; assay: Antibacterial activity against Haemophilus influenzae; format: functional
[12] = tested on: Haemophilus influenzae; assay: Antibacterial activity against Haemophilus influenzae in presence of 50 ug/ml thymidine
[13] = tested on: Haemophilus influenzae; assay: Antibacterial activity against Haemophilus influenzae in presence of 250 ug/ml thymidine; format: functional
[14] = tested on: Enterococcus faecalis; assay: Antibacterial activity against vancomycin-sensitive folA, dfrF-negative Enterococcus faecalis harboring A5T, K88N, F102Y mutation in dfrE gene; format: functional
[15] = tested on: Enterococcus faecalis; assay: Antibacterial activity against vancomycin-sensitive dfrE, dfrF-positive and folA-negative Enterococcus faecalis; format: functional
[16] = tested on: Enterococcus faecium; assay: Antibacterial activity against vancomycin-sensitive dfrE, dfrF-negative and folA-positive Enterococcus faecium; format: functional
[17] = tested on: Enterococcus faecium; assay: Antibacterial activity against vancomycin-resistant dfrE, dfrF-negative and folA-positive Enterococcus faecium; format: functional
[18] = tested on: Staphylococcus aureus; assay: Antibacterial activity against methicillin-sensitive dfrB-positive abd dfrA, dfrG-negative Staphylococcus aureus; format: functional
[19] = tested on: Staphylococcus aureus; assay: Antibacterial activity against methicillin-resistant dfrA within SCCmec-N1, dfrA and dfrG -negative Staphylococcus aureus harboring F98Y mutation in dfrB gene; format: functional
[20] = tested on: Staphylococcus aureus; assay: Antibacterial activity against methicillin-resistant dfrB, dfrA-positive and dfrA within SCCmec-N1, dfrG-negative Staphylococcus aureus; format: functional
[21] = tested on: Staphylococcus aureus; assay: Antibacterial activity against methicillin-resistant dfrB, dfrG-positive and dfrA-negative Staphylococcus aureus; format: functional
[22] = tested on: Staphylococcus epidermidis; assay: Antibacterial activity against methicillin-sensitive dfrC-positive and dfrA, dfrD-negative Staphylococcus epidermidis; format: functional
[23] = tested on: Staphylococcus epidermidis; assay: Antibacterial activity against methicillin-sensitive dfrA, dfrD-negative Staphylococcus epidermidis harboring F98Y mutation in dfrC gene; format: functional
[24] = tested on: Staphylococcus epidermidis; assay: Antibacterial activity against methicillin-sensitive dfrC, dfrA-positive and dfrD-negative Staphylococcus epidermidis; format: functional
[25] = tested on: Staphylococcus epidermidis; assay: Antibacterial activity against methicillin-resistant dfrC, dfrA-positive and dfrA within SCCmec-N1, dfrD-negative Staphylococcus epidermidis; format: functional
[26] = tested on: Staphylococcus aureus; assay: Antibacterial activity against methicillin, vancomycin, trimethoprim-sensitive Staphylococcus aureus ATCC 29213 harboring dfrB gene; format: functional
[27] = tested on: Staphylococcus aureus; assay: Antibacterial activity against vancomycin, trimethoprim-sensitive and methicillin-resistant Staphylococcus aureus ATCC 43300 harboring dfrB gene; format: functional
[28] = tested on: Staphylococcus aureus; assay: Antibacterial activity against vancomycin, trimethoprim, methicillin-resistant Staphylococcus aureus VRS1 harboring dfrA and dfrB genes; format: functional
[29] = tested on: Staphylococcus epidermidis; assay: Antibacterial activity against methicillin, vancomycin, trimethoprim-sensitive Staphylococcus epidermidis ATCC 14990 harboring dfrC gene; format: functional
[30] = tested on: Staphylococcus epidermidis; assay: Antibacterial activity against methicillin, vancomycin-sensitive and trimethoprim-resistant Staphylococcus epidermidis BAS000635 harboring dfrC and dfrA genes; format: functional
[31] = Inhibition of trimethoprim-sensitive Staphylococcus aureus DfrB type dihydrofolate reductase
[32] = molecular target: Dihydrofolate reductase (Staphylococcus aureus, UniProt P0A017, F99Y); assay: Inhibition of trimethoprim-resistant Staphylococcus aureus DfrB type dihydrofolate reductase F98Y mutant
[33] = Inhibition of trimethoprim-resistant Staphylococcus aureus Type S1 dihydrofolate reductase
[34] = tested on: HeLa; assay: Cytotoxicity against human HeLa cells; format: cell-based
[35] = Genotoxicity in Salmonella enterica serovar Typhimurium assessed as increase in number of bacterial revertant colonies by Ames test; format: toxicity; conditions: salmonella enterica subsp. enterica serovar typhimurium
[36] = tested on: Mus musculus; assay: Hepatotoxicity in NMRI mouse assessed as increase in liver weight at 400 mg/kg administered through oral gavage for 5 days; format: toxicity, organism-based; parameters: dose 400 mg/kg, route oral; conditions: in vivo, 120 h
[37] = tested on: Mus musculus; assay: Hepatotoxicity in NMRI mouse assessed as increase in liver weight at 400 mg/kg administered through oral gavage for 10 days; format: toxicity, organism-based; parameters: dose 400 mg/kg, route oral; conditions: in vivo, 240 h
[38] = Oral bioavailability in NMRI mouse; format: ADME, organism-based; conditions: in vivo
[39] = Cmax in NMRI mouse blood at 25 mg/kg administered through oral gavage measured after 7 hrs; format: ADME, organism-based; parameters: dose 25 mg/kg, route oral
[40] = Tmax in NMRI mouse blood at 25 mg/kg administered through oral gavage measured after 7 hrs; format: ADME, organism-based; parameters: dose 25 mg/kg, route oral
[41] = AUC (0 to t) in NMRI mouse blood at 25 mg/kg administered through oral gavage after 7 hrs; format: ADME, organism-based; parameters: time < 7 hr, dose 25 mg/kg, route oral
[42] = tested on: Mus musculus; assay: Hepatotoxicity in NMRI mouse assessed as inflammatory infiltrates at 400 mg/kg administered through oral gavage for 5 days; format: toxicity, organism-based; parameters: dose 400 mg/kg, route oral; conditions: in vivo, 120 h
[43] = tested on: Mus musculus; assay: Hepatotoxicity in NMRI mouse assessed as inflammatory infiltrates at 400 mg/kg administered through oral gavage for 10 days; format: toxicity, organism-based; parameters: dose 400 mg/kg, route oral; conditions: in vivo, 240 h
[44] = tested on: Mus musculus; assay: Hepatotoxicity in NMRI mouse assessed as single-cell necrosis at 400 mg/kg administered through oral gavage for 5 days; format: toxicity, organism-based; parameters: dose 400 mg/kg, route oral; conditions: in vivo, 120 h
[45] = tested on: Mus musculus; assay: Hepatotoxicity in NMRI mouse assessed as single-cell necrosis at 400 mg/kg administered through oral gavage for 10 days; format: toxicity, organism-based; parameters: dose 400 mg/kg, route oral; conditions: in vivo, 240 h
[46] = tested on: Mus musculus; assay: Hepatotoxicity in NMRI mouse assessed as increase in mitosis at 400 mg/kg administered through oral gavage for 10 days; format: toxicity, organism-based; parameters: dose 400 mg/kg, route oral; conditions: in vivo, 240 h
[47] = tested on: Mus musculus; assay: Hepatotoxicity in NMRI mouse assessed as increase in mitosis at 400 mg/kg administered through oral gavage for 5 days; format: toxicity, organism-based; parameters: dose 400 mg/kg, route oral; conditions: in vivo, 120 h
[48] = tested on: Staphylococcus aureus; assay: Antibacterial activity against trimethoprim-sensitive Staphylococcus aureus ATCC 29213; format: functional
[49] = tested on: Staphylococcus aureus; assay: Antibacterial activity against trimethoprim-sensitive Staphylococcus aureus ATCC 29213 infected in NMRI mouse model of septicemia assessed as complete protection from infections at 3.1 mg/kg, iv; format: functional, organism-based; parameters: dose 3.1 mg/kg
[50] = tested on: Staphylococcus aureus; assay: Antibacterial activity against trimethoprim-sensitive Staphylococcus aureus ATCC 29213 infected in NMRI mouse model of septicemia assessed as succumbed to infections at 1.6 mg/kg, iv; format: functional, organism-based; parameters: dose 1.6 mg/kg
[51] = tested on: Staphylococcus aureus; assay: Antibacterial activity against trimethoprim-sensitive Staphylococcus aureus ATCC 29213 infected in NMRI mouse model of septicemia; format: functional
[52] = tested on: Staphylococcus aureus; assay: Antibacterial activity against trimethoprim-resistant Staphylococcus aureus BAS003908; format: functional
[53] = tested on: Staphylococcus aureus; assay: Antibacterial activity against trimethoprim-resistant Staphylococcus aureus BAS003908 infected in NMRI mouse model of septicemia; format: functional
[54] = tested on: Mus musculus; assay: Toxicity in po dosed NMRI mouse; format: organism-based; conditions: in vivo

Structure (SMILES): COc1ncc(C2c3ccccc3C=NN2C(=O)/C=C/c2cc(Cc3cnc(N)nc3N)cc(OC)c2OC)cn1 (stereo not given)
- Activity [1]: 77%
- MIC [2]: ≤ 0.25 mg/L
- MIC [3]: ≤ 0.25 mg/L
- MIC [4]: 1 mg/L
- MIC [5]: 1 mg/L (≈ 1.81 µM)
- MIC [6]: ≥ 128 mg/L
- MIC [7]: > 128 mg/L
- MIC [8]: 64 mg/L (≈ 116 µM)
- MIC [9]: 32 mg/L
- MIC [10]: ≥ 128 mg/L
- MIC [11]: > 128 mg/L
- MIC [12]: 64 mg/L
- MIC [13]: 32 mg/L
- MIC [14]: 0.5 mg/L (≈ 0.905 µM)
- MIC [15]: > 128 mg/L
- MIC [16]: ≤ 0.25 mg/L
- MIC [17]: 2 mg/L (≈ 3.62 µM)
- MIC [18]: ≤ 0.25 mg/L
- MIC [19]: 0.5 mg/L (≈ 0.905 µM)
- MIC [20]: 1 mg/L (≈ 1.81 µM)
- MIC ([20]; Staphylococcus aureus, read-out: MIC): 1 mg/L (≈ 1.81 µM)
- MIC [21]: 32 mg/L (≈ 57.9 µM)
- MIC [22]: ≤ 0.25 mg/L
- MIC [23]: 0.5 mg/L (≈ 0.905 µM)
- MIC [24]: 0.5 mg/L (≈ 0.905 µM)
- MIC [25]: 0.5 mg/L (≈ 0.905 µM)
- MIC [26]: 0.5 mg/L (≈ 0.905 µM)
- MIC [27]: 0.25 mg/L (≈ 0.452 µM)
- MIC [28]: 4 mg/L (≈ 7.24 µM)
- MIC [29]: 0.125 mg/L (≈ 0.226 µM)
- MIC [30]: 4 mg/L (≈ 7.24 µM)
- IC50 [31]: 0.0052 µM
- IC50 [32]: 0.0226 µM
- IC50 [33]: 0.121 µM
- IC50 [34]: 12 µM
- Activity [35]: Non-toxic
- Activity [36]: < 10%
- Activity [37]: < 10%
- bioavailability [38]: 25%
- Cmax [39]: 3.24 µg/mL
- Tmax [40]: 30 min
- AUC(0-t) at 7 h [41]: 10.6 µg·h/mL
- Activity [42]: < 10%
- Activity [43]: < 10%
- Activity [44]: < 10%
- Activity [45]: < 10%
- Activity [46]: < 10%
- Activity [47]: < 10%
- MIC [48]: < 0.25 mg/L
- Activity [49]: Active
- Activity [50]: inactive
- ED50 [51]: 1.6 mg/kg
- MIC [52]: 0.5 mg/L (≈ 0.905 µM)
- ED50 [53]: 3.1 mg/kg
- Activity [54]: 400 mg/kg

From ChEMBL document CHEMBL1671659, “In vitro and in vivo properties of dihydrophthalazine antifolates, a novel family of antibacterial drugs” (Antimicrob Agents Chemother, 2009)
